Measured values as given in patent US6034120A, “Insect antifeedant for agriculture” (Morita Kaguku Kogyo Co., Ltd., priority 1997, dated 2000).
Entries after “also recorded” stand apart in the source; their conditions may differ.

Columns and labels:
[1] = tested on: Spodoptera litura FABRICIUS; experiment: antifeeding effect by the leaf disk method (antifeedant index); format: in vivo, Spodoptera litura FABRICIUS larvae, third or fourth instar; parameters: key to Antifeedant index (AFI): AFI = 100×T/(T+C); 50 = same as control, ≤30 = antifeeding; conditions: for Antifeedant index (AFI): 30 or less = antifeeding activity
Experimental: A test for an antifeeding effect on insects was conducted by the leaf disk method. After wiping off the surface of a leaf of Ipomoea batatas with acetone in order to remove extraneous matter on the leaf, a disk having a diameter of 2 cm was cut out with a cork borer, avoiding the veins of the leaf. An acetone solution containing the predetermined amount of samples was applied to the disk, which was sufficiently air-dried. As a control, the same amount of acetone solution was used, and applied to the leaf disk in the same manner as in the sample. Two pieces each of the sample and the control were placed crosswise in a petri dish, and 15 larvae of Spodoptera litura FABRICIUS were set in the petri dish to put on the lid. The Spodoptera litura FABRICIUS used was the third or fourth instar. This is because the younger the larvae, the greater the effect they receive due to allelochemical. The first or second instar larvae prefer to eat a tender portion of the leaf because they cannot eat hard veins or fiber of the leaf. On the other hand, the fifth or sixth instar larvae move the leafdisk because they are well-built. Further, the antifeeding effect due to allelochemical is lowered because they eat any portion of the leaf. Therefore, it is better not to use the fifth or sixth instar larvae.
The petri dish was allowed to stand in a thermostatic chamber at 25 to 27° C. under light. Two to 5 hours later, 4 pieces of the leaf were taken out to convert them into black and white pictures with a photocopier. Using a scanner, the disk area was digitized, and then the disk area was expressed numerically at the pixel unit on a Mackintosh computer using a free soft NIH image.
The method of calculating an antifeedant index (AFI) is as follows. First, a standard area of an intact leaf is calculated. The ratio of the area of the leaf consumed by the larvae to the standard area of the leaf was calculated.
Antifeedant index=100×T/(T+C)
T: Total percentage of treated disk consumed
C: Total percentage of control disk consumed
If this index is 30 or less, the tested leaf has antifeeding activity. […] When the consumed area of the sample and that of the control is the same, the antifeedant index indicates 50.
Concerning scabequinone, remirol, cyperaquinone and methylremirol, the AFI and FR were calculated according to the method for testing an antifeeding effect.

[2] = tested on: Plutella maculipennis CURTIS; experiment: test for an insecticidal effect (contact application); format: in vivo, Plutella maculipennis CURTIS larvae, third instar; conditions: for LD50: acetone solution applied to third instar larvae, 24 hours, probit method; for insecticidal effect / LD50 comparison (in words): versus scabequinone
Experimental: In order to test the insecticidal effect of remirol, methylremirol and scabequinone, acetone was added to each sample and the resulting acetone solution was applied to the third instar larvae of Plutella maculipennis CURTIS. Thereafter, Kaiwaredaikon (Raphanus sativus LINN, C.V. shijunichi) was fed to them as a feed and the number of survived larvae after 24 hours was counted. LD50 (lethal dose 50) was calculated by the probit method.

[3] = tested on: Tyrophagus putrescentiae SCHRANK; experiment: dry film method in test tube, repelling of Tyrophagus putrescentiae; format: in vivo; conditions: 1 mg, 25° C., 1 day
Experimental: To 1 mg of cyperaquinone was added acetone and the resulting solution was charged in a test tube (a diameter of 1 cm). Thereafter, the solution was treated by the dry film method. (The method is as follows: a solution was charged at the bottom of a test tube. After applying the solution to the wall of the test tube, the solvent was removed to leave a sample on the wall of the test tube.) Fifty Tyrophagus putrescentiae SCHRANK were set in the test tube. After growing them at 25° C. for 1 day, the confirmation was conducted with a stereomicroscope.

plants = conditions: background statement; cited from earlier work
[4] = 1 mg/leaf, 50 = no difference from control

Row | SMILES | Antifeedant index (AFI) [1, 4] | LD50 [2] | insecticidal effect / LD50 comparison (in words) [2] | FR (consumed ratio of treated leaves) ([1]; 0.1 mg/leaf) | FR (consumed ratio of treated leaves) ([1]; 0.25 mg/leaf) | Antifeedant index (AFI) ([1]; 0.25 mg/leaf) | FR (consumed ratio of treated leaves) ([1]; 1 mg/leaf) | Antifeedant index (AFI) ([1]; 0.1 mg/leaf) | antifeeding effect (in words) ([1]; leaf disk method) | mortality (in words) [3] | repelling effect (in words) [3] | anti-breeding effect on the plants (plants)
1 | C=C(C)C1Cc2c(cc(OC)c(C(C)=O)c2OC)O1 (racemic) [racemic methylremirol] | 44.3 | – | – | – | – | – | – | – | – | – | – | –
2 | C=C(C)C1Cc2c(cc(OC)c(C(C)=O)c2OC)O1 (stereo not drawn) [methylremirol] | 0 | 1.0 mg | superior to scabequinone in the insecticidal effect | – | – | – | – | – | – | – | – | –
3 | C=C(C)C1Cc2c(cc(OC)c(C(C)=O)c2O)O1 (stereo not drawn) [remirol] | 8.57 | 0.125 mg | superior to scabequinone in the insecticidal effect | 11.33 | 10.31 | 19.02 | 3.84 | – | – | – | – | –
4 | C=C(C)C1Cc2c(OC)cc(OC)cc2O1 (stereo not drawn) [2-isopopenyl-4,6-methoxy-coumaran, 2-isopropenyl-4,6-methoxycoumaran] | 26.1 | – | – | – | – | – | – | – | – | – | – | –
5 | Cc1coc2c1C(=O)C1=C(OCC(C(C)C)C1)C2=O (stereo not drawn) [scabequinone] | 0 | 1.371 mg | – | 1.61 | 0.47 | 2.16 | – | 4.22 | did quite well in the antifeeding effect; also recorded: by far superior to another commercially available product quercetin | – | – | –
6 | O=c1c(O)c(-c2ccc(O)c(O)c2)oc2cc(O)cc(O)c12 [quercetin, reference compound] | 2.07 | – | – | 15.96 | 13.07 | 25.08 | 0.66 | 25.04 | – | – | – | –
7 | C=C(C)c1cc2c(o1)C(=O)c1occ(C)c1C2=O [cyperaquinone] | 20.98 | – | – | 16.18 | 13.92 | 26.03 | 9.98 | – | – | Some of the Tyrophagus putrescentiae SCHRANK were dead | had a repelling effect on Tyrophagus putrescentiae SCHRANK | –
8 | O=C1C=CC(=O)c2c(O)cccc21 [juglone, reference compound] | 0 | – | – | 0 | 0 | 0 | 0 | 0 | – | – | – | strong anti-breedingeffect on the plants
